These are literature values, as cited in PMC3904261 (British Journal of Pharmacology, 2013).

Bridge positions count the residues as written; N and C are the ends. Ends that are not written are not given here.

This data set relates to porcine iris ciliary body. Particulars: ref Heino et al., 1998; cited from earlier work. The text has this: Similarly, substitution of Thr-6 ...

“[Val^6]-CGRP: CGRP analogue substituted at position 6, from Heino et al., 1998 (ACDTAVCVTHRLAGLLSRSGGVVKNNFVPTNVGSKAF-NH2; disulfide 2-7; ends not checked; UniProt P06881 83-119, looked up, variant T6V)”: the “stimulation of cAMP production” value is “inactive”.
